Where “and” joins values, the source holds several entries; their conditions need not be identical. Identical values can stand only once.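 Exposure lasted 48 hours, with cells grown in 96-well plates and compounds tested at five concentrations. Here, GI50 denotes the concentration required for 50% inhibition of growth. TGI: concentration producing complete growth inhibition.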 Where a SMILES comes first, the peptide text is derived from it. The star is where a group is joined. Cbz = O=C(OCc1ccccc1)*
Legend:
Test in all cases: NCI tumour cell line growth inhibition, 48 h
MOLT-4 leukemia = test system: MOLT-4 leukemia
BT-549 breast = test system: BT-549 breast
IGROV1 ovarian = test system: IGROV1 ovarian
SF-295 CNS = test system: SF-295 CNS
SR leukemia = test system: SR leukemia
786-0 renal = test system: 786-0 renal
MCF7 breast = test system: MCF7 breast
NCI/ADR-RES ovarian = test system: NCI/ADR-RES ovarian
M14 melanoma = test system: M14 melanoma
EKVX NSCLC = test system: EKVX NSCLC

SMILES	TGI (MOLT-4 leukemia) [µM]	TGI (BT-549 breast) [µM]	TGI (IGROV1 ovarian)	TGI (SF-295 CNS)	TGI (SR leukemia)	TGI (786-0 renal) [µM]	TGI (MCF7 breast) [µM]	TGI (NCI/ADR-RES ovarian)	TGI (M14 melanoma) [µM]	TGI (EKVX NSCLC)	GI50 (MOLT-4 leukemia) [µM]	GI50 (IGROV1 ovarian) [µM]	GI50 (SF-295 CNS) [µM]	GI50 (SR leukemia) [µM]	GI50 (NCI/ADR-RES ovarian) [µM]
O=c1[nH]c2nc3ccccc3c(=O)n2/c1=C/c1cccs1	> 100	> 100	> 100 µM	> 100 µM	> 100 µM	> 100	> 100	> 100 µM	> 100	> 100 µM					
CC(NC(=O)c1c(O)[nH]c(=S)[nH]c1=O)c1ccc([N+](=O)[O-])cc1 (configuration not stated)	95	> 100	> 100 µM	> 100 µM		> 100	> 100		> 100	> 100 µM					
C(=Nc1ccc2c(c1)Cc1ccccc1-2)c1ccccn1	> 100	> 100	> 100 µM	> 100 µM	> 100 µM	> 100		> 100 µM	> 100	> 100 µM					
N#Cc1cc2c(cc1Cl)Sc1nnc(Nc3ccccc3)n1S2(=O)=O	4.06	8.12	5.76 µM	9.2 µM	0.696 µM	8.49	> 40.4	3.43 µM	4.78	7.95 µM					
O=C1OCC2OC(=O)c3cc(O)c(O)c(O)c3-c3c(O)c(O)c(O)c4c3C(=O)OC(C2OC(=O)c2cc(O)c(O)c(O)c2-c2c1cc(O)c(O)c2O)C1OC(=O)C2C4=C(O)C(=O)C23Oc2cc(O)c4c(c2[C@H]13)O[C@H](c1ccc(O)c(O)c1)[C@@H](O)C4 (some centres not stated)	54	83.3	> 100 µM	53.5 µM	> 100 µM	56.7	46.3	73.3 µM	29.6	42.7 µM					
CN1CCc2c(sc3[nH]c(=S)[nH]c(=S)c23)C1	> 100	> 100	> 100 µM	> 100 µM	> 100 µM	> 100	> 100	> 100 µM	> 100	> 100 µM					
COCn1cnc2c(=O)nc(SC)n(-c3ccccc3)c21	> 100	> 100	> 100 µM	> 100 µM		> 100	> 100	> 100 µM	> 100	> 100 µM					
COc1ccc(C2(CC(C)C)CCN(S(=O)(=O)c3ccc(C)cc3)C2)cc1OC (configuration not stated)	17.4	> 100	> 100 µM	> 100 µM	> 100 µM	> 100	> 100	70.5 µM	> 100	> 100 µM					
COC(=O)N[C@H](C(=O)NC(OCc1ccccc1)C1COC(C)(C)O1)C(C)O[Si](C)(C)C(C)(C)C (some centres not stated)	> 100		> 100 µM		> 100 µM	> 100	> 100	> 100 µM	> 100	> 100 µM					
Cn1nnnc1SC(F)(F)c1nc2ccccc2o1	> 100	> 100	> 100 µM	> 100 µM	> 100 µM	> 100	> 100	> 100 µM	> 100						
CCOC(=O)CCC(NC(=O)C(Cc1ccccc1)NC(=O)OCc1ccccc1)C(=O)OCC (stereo not drawn) (Cbz-Phe-Glu(OEt)-OEt; configuration not given here)	> 71.3	> 100	32.3 µM	34.1 µM	> 68.8 µM	32	39.6	42 µM	29.3	39.1 µM					
CC1CC(Nc2ccc(Br)cc2)N(C(=O)c2ccc(Br)cc2)O1 (configuration not stated)	> 10	> 10	> 10 µM	> 10 µM	> 10 µM	> 10	> 10	> 10 µM	> 10	> 10 µM					
O=C1c2c(Br)sc(Br)c2C(=O)C1(O)O	93.5	37.9	> 100 µM	> 100 µM	57.4 µM	> 100	> 100	> 100 µM	33.6	> 100 µM					
NC1(CCNC(=O)c2ccccc2)CCN(C(=O)c2ccccc2)CC1	> 100	> 100	> 100 µM	> 100 µM	> 100 µM	> 100	> 100	> 100 µM	> 100	> 100 µM					
Cc1ccnc2c1C(=O)C1=C(OC(C)(C)CC1O)C2=O (configuration not stated)	26.9	12.7	11.3 µM	8.79 µM	15.4 µM	16.4	7.94	8.93 µM	9.97	18.5 µM					
C=C1CCCCCCCCC/C=C/1SCCCSC	> 100		> 100 µM	> 100 µM	> 100 µM	> 100	> 100	> 100 µM	> 100	> 100 µM					
CCOC(=O)C(NC(=O)c1ccccc1)(N1CCN(c2cc3c(cc2F)c(=O)c(C(=O)O)cn3C2CC2)CC1)C(F)(F)F (configuration not stated)	32.8	50.9	92.5 µM	87.9 µM	45.2 µM	> 100			40.7	67.1 µM					
COC(=O)[C@@H](NC(=O)N(Cc1ccccc1)C[C@H](CC(C)C)NC(=O)[C@@H](NC(=O)OC(C)(C)C)C(C)C)C(C)C	> 100	> 100		> 100 µM	> 100 µM	> 100		> 100 µM	> 100	> 100 µM					
Cc1cc(C)nc(NC(P(=O)(O)O)P(=O)(O)O)n1		> 100	> 100 µM	> 100 µM		> 100	> 100	> 100 µM	> 100	> 100 µM					
O=c1cc(NNc2cccc(Cl)c2)[nH]c(=O)[nH]1	60.1	> 100	> 100 µM		> 100 µM	31	17.3	> 100 µM	37.7						
C=C1CC[C@H]2C(=O)OC(c3ccoc3)C[C@]2(C)C/C=C\C=C/1C(=O)OC (some centres not stated)		> 25	> 25 µM	> 25 µM		> 25	> 25	> 25 µM	> 25	> 25 µM					
O=c1cc(CF)[nH]c(=S)[nH]1	> 100	> 100	> 100 µM	> 100 µM	> 100 µM	> 100		> 100 µM	> 100	> 100 µM					

SMILES	TGI (MOLT-4 leukemia) [µM]	TGI (BT-549 breast) [µM]	TGI (IGROV1 ovarian)	TGI (SF-295 CNS)	TGI (SR leukemia)	TGI (786-0 renal) [µM]	TGI (MCF7 breast) [µM]	TGI (NCI/ADR-RES ovarian)	TGI (M14 melanoma) [µM]	TGI (EKVX NSCLC)	GI50 (MOLT-4 leukemia) [µM]	GI50 (IGROV1 ovarian) [µM]	GI50 (SF-295 CNS) [µM]	GI50 (SR leukemia) [µM]	GI50 (NCI/ADR-RES ovarian) [µM]
O=C1CCSCCC(=O)Nc2ccccc2N1	> 100	> 100	> 100 µM	> 100 µM	> 100 µM	> 100		> 100 µM	> 100	> 100 µM					
O=Cc1ccc(-c2ccc(-c3ccc(CO)s3)o2)s1	> 39	67.9		> 87.9 µM	2.74 µM	> 48.9	> 100	40.4 µM	> 70.6	> 69.1 µM					
COc1cc2nc(-c3cccs3)nc(Cl)c2cc1OC		> 100	> 100 µM	> 100 µM	34.8 µM	> 100	76	> 100 µM	> 100	> 100 µM					
COc1ccc(N2C(=O)C(=O)N(c3ccc(N=Nc4ccccc4)cc3)C2=S)cc1	> 100		31.3 µM	35.4 µM	> 100 µM	35.5		35.9 µM		37 µM					
CCOC(=O)CCC1(CCC(=O)OCC)CCCCCCCCC(CCC(=O)OCC)(CCC(=O)OCC)C(=O)C1=O			> 100 µM	> 100 µM	> 100 µM	> 100	> 100	> 100 µM	> 100	> 100 µM					
CC(=O)NC1C(Sc2ncn(C3OC(CO)C(O)C(O)C3NC(C)=O)n2)OC(CO)C(O)C1O (configuration not stated)	> 100	> 100	> 100 µM	> 100 µM		> 100	> 100	> 100 µM	> 100	> 100 µM					
Cc1ccc2c(c1)CC1(Cc3cccc(C)c3C1=O)C2=O (configuration not stated)	> 100		> 100 µM	> 100 µM	> 100 µM	> 100	> 10	> 100 µM	> 100	> 100 µM					
CC(=O)c1ccc2c(c1)C(=O)c1sc(C(C)=O)cc1C2=O			2.55 µM and 1.59 µM	1.84 µM and 3 µM	50 µM and > 100 µM	50	4.7	2.56 µM and 1.93 µM	2.21	3.43 µM and 2.58 µM	0.0664	0.43	1.56	0.0247	0.326
CCOC(=O)c1ccc(-c2ccc(Cl)cc2)[nH]1	> 10	> 10	> 10 µM	> 10 µM	> 10 µM	> 10		> 10 µM	> 10	> 10 µM					
CS(=O)(=O)N1CC(CCl)c2ccc(O)cc21 (configuration not stated)	> 100	8.35	4.5 µM	11.6 µM	77.4 µM	11.6	> 100	17.4 µM		16.3 µM					
COc1ccc(/C(Cl)=C(\C#N)c2ccc(OC)c(OC)c2)cc1OC	> 100	> 100	> 100 µM	> 100 µM	> 100 µM	> 100	> 100		> 100	94 µM					
CCOP(=O)(OCC)/C(C#N)=C/c1ccc(-c2cc(C(F)(F)F)cc(C(F)(F)F)c2)o1	21.8	44.9		11.8 µM	26.8 µM	25.5	20	23.6 µM	23.1	35 µM					
CC1(C)O[C@H]2OC(CO)C(N=[N+]=[N-])[C@H]2O1 (some centres not stated)	> 100		> 100 µM	> 100 µM	> 100 µM	> 100	> 100	> 100 µM	> 100	> 100 µM					
CC(=O)Nc1c(C(=N)C#N)ncn1CCO			> 100 µM	> 100 µM		> 100	> 100	> 100 µM	> 100	> 100 µM					
Cc1n[n+](Cc2ccccc2)c2sc(N)nn12	> 100	> 100	> 100 µM	> 100 µM		> 100	> 100	> 100 µM	> 100	> 100 µM					
O=C(Cn1c2ccc(Br)cc2c2nc3ccccc3nc21)NNC(=S)NC1CCCCC1	22.6	42.8	23.6 µM	25.7 µM		28.9		34.5 µM	24.2	43.1 µM					
CCOC(=O)CCC(NC(=O)OCc1ccccc1)C(=O)NC(CCC(=O)OCC)C(=O)OCC (configuration not stated) (Cbz-Glu(OEt)-Glu(OEt)-OEt; configuration not given here)	> 100		> 100 µM	> 100 µM	> 100 µM	> 100	> 100	> 100 µM	> 100	> 100 µM					
O=C1CC(=O)NC(=NN2C(=O)/C(=C/c3ccc(Cl)c(Cl)c3)N=C2c2ccccc2)N1	50.8	49.2	> 100 µM	> 100 µM	36.3 µM	> 100	49.8	54.2 µM	83.5						
CCOC(=O)c1c(OCC)[nH]c(=O)c(C(c2cccs2)c2c(O)c(C(=O)OCC)c(OCC)[nH]c2=O)c1O	22.5	22.7	28.6 µM	49.6 µM		59.3	53.9	> 100 µM	35.6	32.7 µM					
OC(C/C=N/N=C/CC(O)(C(F)(F)Cl)C(F)(F)Cl)(C(F)(F)Cl)C(F)(F)Cl	> 10		> 10 µM	> 10 µM	> 10 µM	> 10	> 10	> 10 µM	> 10	> 10 µM					
N[C@H](Cc1ccc2oc3cc(=O)c4ccccc4c-3nc2c1)C(=O)O	> 100		> 100 µM	> 100 µM	> 100 µM	> 100	65	> 100 µM	39.9	> 100 µM					
COc1cc(Nc2nc3cc(C(F)(F)F)ccc3nc2C(=O)O)cc(OC)c1OC	> 100	> 100	> 100 µM	67.8 µM		> 100	> 100	> 100 µM	> 100	> 100 µM					

Source: PubChem BioAssay (NCI)
